This is an account of results in ChEMBL document CHEMBL4033774, “Class I HDAC Inhibitors: Potential New Epigenetic Therapeutics for Alcohol Use Disorder (AUD)” (J Med Chem, 2018).

Series [1] deals with T1, Protein deacetylase HDAC6 (Homo sapiens, UniProt Q9UBN7).
T1 sequence (Q9UBN7 whole entry): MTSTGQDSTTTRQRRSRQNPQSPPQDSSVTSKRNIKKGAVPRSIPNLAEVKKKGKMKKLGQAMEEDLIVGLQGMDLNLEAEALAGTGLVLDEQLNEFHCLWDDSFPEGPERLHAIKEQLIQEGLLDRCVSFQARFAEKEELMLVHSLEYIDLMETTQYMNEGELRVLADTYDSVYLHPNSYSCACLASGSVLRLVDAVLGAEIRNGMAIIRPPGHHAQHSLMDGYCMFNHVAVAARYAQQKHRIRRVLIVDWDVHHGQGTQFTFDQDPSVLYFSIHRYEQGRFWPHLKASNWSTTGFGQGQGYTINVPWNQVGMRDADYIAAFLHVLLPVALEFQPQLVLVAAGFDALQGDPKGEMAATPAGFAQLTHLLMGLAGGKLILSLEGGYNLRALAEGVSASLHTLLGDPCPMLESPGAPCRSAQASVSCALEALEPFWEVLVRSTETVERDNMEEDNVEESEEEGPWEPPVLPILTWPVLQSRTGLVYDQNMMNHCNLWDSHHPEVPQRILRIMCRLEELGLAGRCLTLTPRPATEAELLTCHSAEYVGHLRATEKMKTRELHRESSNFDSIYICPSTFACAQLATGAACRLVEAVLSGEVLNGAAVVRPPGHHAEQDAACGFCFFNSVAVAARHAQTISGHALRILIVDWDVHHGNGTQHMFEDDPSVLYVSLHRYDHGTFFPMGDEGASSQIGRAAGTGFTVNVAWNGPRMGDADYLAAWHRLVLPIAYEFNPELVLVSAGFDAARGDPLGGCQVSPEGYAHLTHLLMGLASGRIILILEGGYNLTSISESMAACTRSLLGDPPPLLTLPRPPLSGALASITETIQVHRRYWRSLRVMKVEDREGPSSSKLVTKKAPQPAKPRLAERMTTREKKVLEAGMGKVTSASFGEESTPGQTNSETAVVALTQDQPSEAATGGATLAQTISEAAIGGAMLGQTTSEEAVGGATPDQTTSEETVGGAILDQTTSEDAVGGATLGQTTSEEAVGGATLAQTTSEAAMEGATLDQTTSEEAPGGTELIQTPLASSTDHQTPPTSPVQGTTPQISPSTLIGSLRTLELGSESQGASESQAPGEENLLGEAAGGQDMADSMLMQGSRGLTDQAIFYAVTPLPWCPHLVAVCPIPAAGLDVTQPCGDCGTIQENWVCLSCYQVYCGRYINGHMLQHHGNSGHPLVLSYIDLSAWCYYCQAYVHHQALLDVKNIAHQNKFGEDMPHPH
The series can be described thus: Inhibition of full length 6His-tagged HDAC6 (unknown origin) expressed in baculovirus infected Sf9 insect cells incubated for 17 hrs in presence of FAM-labeled acetylated peptide substrate by fluorescence assay.

In series [2] the target is T2, Polyamine deacetylase HDAC10 (Homo sapiens, UniProt Q969S8).
T2 sequence (Q969S8 whole entry): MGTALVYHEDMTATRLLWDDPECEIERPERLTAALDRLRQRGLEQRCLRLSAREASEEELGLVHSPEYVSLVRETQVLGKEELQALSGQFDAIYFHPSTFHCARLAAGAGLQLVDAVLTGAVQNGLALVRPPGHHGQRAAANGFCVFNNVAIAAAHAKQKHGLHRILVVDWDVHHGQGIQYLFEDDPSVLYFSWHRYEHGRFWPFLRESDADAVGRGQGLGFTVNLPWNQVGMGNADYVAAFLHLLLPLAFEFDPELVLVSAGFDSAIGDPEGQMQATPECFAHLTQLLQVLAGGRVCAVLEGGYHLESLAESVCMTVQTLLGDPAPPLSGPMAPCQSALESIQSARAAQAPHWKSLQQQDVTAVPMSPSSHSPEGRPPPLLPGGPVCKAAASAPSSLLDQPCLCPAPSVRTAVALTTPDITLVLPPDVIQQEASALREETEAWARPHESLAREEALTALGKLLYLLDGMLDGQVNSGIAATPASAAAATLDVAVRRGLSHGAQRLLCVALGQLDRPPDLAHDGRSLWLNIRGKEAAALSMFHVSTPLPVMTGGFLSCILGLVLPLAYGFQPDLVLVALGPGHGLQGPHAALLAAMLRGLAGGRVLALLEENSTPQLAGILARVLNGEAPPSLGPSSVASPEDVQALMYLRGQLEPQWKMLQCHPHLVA
Nature of the series: Inhibition of C-terminal 6His-tagged HDAC10 (unknown origin) (632 to 669 residues) expressed in baculovirus infected Sf9 insect cells incubated for 17 hrs in presence of FAM-labeled acetylated peptide substrate by fluorescence assay.

Series [3] has as its target T3, Histone deacetylase 1 (Homo sapiens, UniProt Q13547). The series can be described thus: Inhibition of full length 6His-tagged HDAC1 (unknown origin) expressed in baculovirus infected Sf9 insect cells incubated for 17 hrs in presence of FAM-labeled acetylated peptide substrate by fluorescence assay.
Series [4] concerns the target T4, Histone deacetylase 2 (Homo sapiens, UniProt Q92769). Nature of the series: Inhibition of full length 6His-tagged HDAC2 (unknown origin) expressed in baculovirus infected Sf9 insect cells incubated for 17 hrs in presence of FAM-labeled acetylated peptide substrate by fluorescence assay.
The target of the next series is T5, Histone deacetylase 8 (Homo sapiens, UniProt Q9BY41).
T5 sequence (Q9BY41 whole entry): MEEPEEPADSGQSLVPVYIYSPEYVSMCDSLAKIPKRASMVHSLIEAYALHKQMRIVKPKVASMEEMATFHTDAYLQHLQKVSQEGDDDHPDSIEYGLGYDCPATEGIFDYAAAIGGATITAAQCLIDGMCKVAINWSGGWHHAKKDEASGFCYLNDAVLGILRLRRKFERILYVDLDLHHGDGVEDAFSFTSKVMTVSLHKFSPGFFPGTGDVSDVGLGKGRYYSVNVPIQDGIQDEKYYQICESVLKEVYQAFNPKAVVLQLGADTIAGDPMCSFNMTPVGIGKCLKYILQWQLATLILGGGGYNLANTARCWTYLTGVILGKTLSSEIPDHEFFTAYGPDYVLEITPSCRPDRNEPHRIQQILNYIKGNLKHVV
The series can be described thus: Inhibition of full length 6His-tagged HDAC8 (unknown origin) expressed in baculovirus infected Sf9 insect cells incubated for 17 hrs in presence of FAM-labeled acetylated peptide substrate by fluorescence assay.

The subject of series [5] is Mus musculus. The series can be described thus: Decrease in alcohol intake in C57BL/6J mouse at 50 mg/kg, ip relative to control. It counts as functional. Also on record: scale not given: the % may be the effect or the level left.
Series [6] relates to Mus musculus. Nature of the series: Decrease in alcohol intake in C57BL/6J mouse at 100 mg/kg, ip relative to control. Also on record: scale not given: the % may be the effect or the level left. It counts as functional.
Series [7] concerns Rattus norvegicus. Nature of the series: Decrease in alcohol intake in rat assessed as operant alcohol self-administration at 50 mg/kg, ip administered once in a week relative to control. Also on record: scale not given: the % may be the effect or the level left. It counts as functional.
Series [8] is described as follows: Lipophilicity, log P of compound by LC-MS/MS analysis. It counts as physicochemical. The settings on record: octanol/water.
A short description of series [9]: Drug uptake in baboon hippocampus after 20 mins by LC-MS/MS analysis. It counts as ADME, tissue-based. The settings on record: papio anubis, in vivo.
In a further series the target is Histone deacetylase 3 (Homo sapiens, UniProt O15379). Nature of the series: Inhibition of HDAC3 (unknown origin).
Sequence of Histone deacetylase 3 (O15379 whole entry): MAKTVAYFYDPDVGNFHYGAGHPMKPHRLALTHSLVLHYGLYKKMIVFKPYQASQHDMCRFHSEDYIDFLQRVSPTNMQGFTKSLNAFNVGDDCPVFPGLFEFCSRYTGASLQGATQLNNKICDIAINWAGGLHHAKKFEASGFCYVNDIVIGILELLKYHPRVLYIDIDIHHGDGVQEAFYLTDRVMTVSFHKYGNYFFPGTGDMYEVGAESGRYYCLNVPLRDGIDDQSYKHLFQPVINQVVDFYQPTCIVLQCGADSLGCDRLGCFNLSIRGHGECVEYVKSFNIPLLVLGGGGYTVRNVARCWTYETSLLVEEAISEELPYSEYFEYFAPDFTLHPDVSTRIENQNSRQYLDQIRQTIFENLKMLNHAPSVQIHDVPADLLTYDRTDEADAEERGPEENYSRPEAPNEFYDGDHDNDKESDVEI
In another series the target is T6, Histone deacetylase 11 (Homo sapiens, UniProt Q96DB2).
T6 sequence (Q96DB2 whole entry): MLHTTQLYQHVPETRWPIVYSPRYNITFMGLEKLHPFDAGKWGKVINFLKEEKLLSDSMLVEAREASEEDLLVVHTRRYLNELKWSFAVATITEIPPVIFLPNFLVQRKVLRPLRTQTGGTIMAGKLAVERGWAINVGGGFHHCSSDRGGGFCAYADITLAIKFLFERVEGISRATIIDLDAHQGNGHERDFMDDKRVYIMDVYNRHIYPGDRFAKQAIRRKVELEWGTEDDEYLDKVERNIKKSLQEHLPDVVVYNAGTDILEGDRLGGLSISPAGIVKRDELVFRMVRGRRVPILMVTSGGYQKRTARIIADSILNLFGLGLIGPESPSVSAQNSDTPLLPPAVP
Nature of the series: Inhibition of HDAC11 (unknown origin).

Series [10] has as its target T1, Protein deacetylase HDAC6. Nature of the series: Inhibition of HDAC6 (unknown origin).
For series [11], the target named is T3, Histone deacetylase 1. The series can be described thus: Inhibition of HDAC1 (unknown origin).
Series [12] addresses T2, Polyamine deacetylase HDAC10. The series can be described thus: Inhibition of HDAC10 (unknown origin).
In the next series the target is Histone deacetylase 4 (Homo sapiens, UniProt P56524). Nature of the series: Inhibition of HDAC4 (unknown origin).
Sequence of Histone deacetylase 4 (P56524 whole entry): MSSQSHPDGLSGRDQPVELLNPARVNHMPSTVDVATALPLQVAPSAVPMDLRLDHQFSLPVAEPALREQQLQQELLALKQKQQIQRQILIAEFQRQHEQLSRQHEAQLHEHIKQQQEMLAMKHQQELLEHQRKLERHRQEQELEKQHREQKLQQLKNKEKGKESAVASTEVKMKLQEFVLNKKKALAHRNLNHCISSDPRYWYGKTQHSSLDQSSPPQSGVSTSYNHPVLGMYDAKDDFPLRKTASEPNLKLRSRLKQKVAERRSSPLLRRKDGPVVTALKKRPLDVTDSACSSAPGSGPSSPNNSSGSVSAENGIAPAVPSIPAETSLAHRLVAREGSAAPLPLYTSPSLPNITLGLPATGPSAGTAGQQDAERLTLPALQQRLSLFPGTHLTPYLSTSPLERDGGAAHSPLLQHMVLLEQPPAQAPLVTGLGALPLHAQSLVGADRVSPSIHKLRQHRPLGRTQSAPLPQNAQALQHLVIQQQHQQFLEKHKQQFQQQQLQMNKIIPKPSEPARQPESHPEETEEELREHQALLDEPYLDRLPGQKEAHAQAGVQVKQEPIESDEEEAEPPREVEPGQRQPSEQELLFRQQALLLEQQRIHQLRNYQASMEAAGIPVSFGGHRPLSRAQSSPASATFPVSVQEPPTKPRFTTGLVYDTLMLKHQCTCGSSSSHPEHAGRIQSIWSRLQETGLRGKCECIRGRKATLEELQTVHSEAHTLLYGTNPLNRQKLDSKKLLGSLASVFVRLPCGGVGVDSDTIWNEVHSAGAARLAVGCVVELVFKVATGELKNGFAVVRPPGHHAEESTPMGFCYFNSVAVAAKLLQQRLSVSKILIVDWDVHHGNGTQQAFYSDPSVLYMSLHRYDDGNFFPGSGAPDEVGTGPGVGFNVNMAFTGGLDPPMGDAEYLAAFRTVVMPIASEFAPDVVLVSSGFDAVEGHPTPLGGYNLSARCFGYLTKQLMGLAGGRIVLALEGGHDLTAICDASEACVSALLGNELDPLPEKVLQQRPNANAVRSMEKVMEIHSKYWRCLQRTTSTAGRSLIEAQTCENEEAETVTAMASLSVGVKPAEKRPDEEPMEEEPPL
For series [13], the target named is T4, Histone deacetylase 2. Nature of the series: Inhibition of HDAC2 (unknown origin).
Series [14] concerns Rattus norvegicus. Nature of the series: Decrease in alcohol intake in rat model of voluntary heavy drinking assessed as decrease in operant alcohol self-administration at 500 uM, icv administered twice relative to control. It counts as functional. Also on record: scale not given: the % may be the effect or the level left.
Series [15] deals with Rattus norvegicus. Nature of the series: Decrease in alcohol intake in rat model of voluntary heavy drinking assessed as decrease in relapse phenomenon after period of abstinence at 500 uM, icv administered twice relative to control. It counts as functional. Further details: scale not given: the % may be the effect or the level left.
The nature of series [16]: Half life in human at 2 mg/m2 dosed twice a week. It counts as ADME, organism-based. The conditions noted are these: in vivo.
A short description of series [17]: Lipophilicity, log P of the compound at pH 7.4. It counts as physicochemical. The conditions noted are these: buffer.
Series [18] in a line: Half life in human at 6 mg/m2, po. It counts as ADME.
Series [19] has as its system Brain. The series can be described thus: Drug uptake in iv dosed baboon brain after 90 mins by PET imaging method relative to control. It counts as ADME, organism-based. The conditions noted are these: papio anubis, in vivo, 1.5 h.
The test system of series [20] is Rattus norvegicus. Nature of the series: Decrease in alcohol intake in rat model of voluntary heavy drinking assessed as decrease in motivation to consume alcohol at 500 uM, icv administered twice relative to control. It counts as functional. Further details: scale not given: the % may be the effect or the level left.
Series [21] has as its system Brain. Nature of the series: Drug uptake in iv dosed rat brain after 90 mins by PET imaging method relative to control. It counts as ADME, organism-based. The settings on record: in vivo, 1.5 h.
A short description of series [22]: Lipophilicity, log D of the compound at pH 7.4. The conditions noted are these: buffer. It counts as physicochemical.
For series [23], the system named is Rattus norvegicus. Nature of the series: Decrease in alcohol intake in rat assessed as ethanol intake at 2 mg/kg, ip administered daily during last 3 days of 10 day period of two-bottel choice paradigm (reference value: 7 g/kg). It counts as functional.

T4 sequence (Q92769 whole entry): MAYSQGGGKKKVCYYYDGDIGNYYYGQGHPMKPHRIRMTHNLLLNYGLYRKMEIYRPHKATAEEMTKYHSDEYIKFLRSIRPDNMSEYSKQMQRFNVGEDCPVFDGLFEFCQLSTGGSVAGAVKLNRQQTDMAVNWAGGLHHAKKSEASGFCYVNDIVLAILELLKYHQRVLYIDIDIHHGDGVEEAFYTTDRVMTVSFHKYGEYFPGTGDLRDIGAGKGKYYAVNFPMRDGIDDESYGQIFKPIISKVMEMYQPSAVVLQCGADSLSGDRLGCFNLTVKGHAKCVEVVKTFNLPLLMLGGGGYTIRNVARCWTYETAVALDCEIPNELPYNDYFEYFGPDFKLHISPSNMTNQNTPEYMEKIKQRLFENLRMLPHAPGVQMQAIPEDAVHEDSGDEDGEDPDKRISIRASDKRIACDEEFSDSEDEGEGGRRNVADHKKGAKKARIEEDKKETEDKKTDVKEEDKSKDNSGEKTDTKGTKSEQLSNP
T3 sequence (Q13547 whole entry): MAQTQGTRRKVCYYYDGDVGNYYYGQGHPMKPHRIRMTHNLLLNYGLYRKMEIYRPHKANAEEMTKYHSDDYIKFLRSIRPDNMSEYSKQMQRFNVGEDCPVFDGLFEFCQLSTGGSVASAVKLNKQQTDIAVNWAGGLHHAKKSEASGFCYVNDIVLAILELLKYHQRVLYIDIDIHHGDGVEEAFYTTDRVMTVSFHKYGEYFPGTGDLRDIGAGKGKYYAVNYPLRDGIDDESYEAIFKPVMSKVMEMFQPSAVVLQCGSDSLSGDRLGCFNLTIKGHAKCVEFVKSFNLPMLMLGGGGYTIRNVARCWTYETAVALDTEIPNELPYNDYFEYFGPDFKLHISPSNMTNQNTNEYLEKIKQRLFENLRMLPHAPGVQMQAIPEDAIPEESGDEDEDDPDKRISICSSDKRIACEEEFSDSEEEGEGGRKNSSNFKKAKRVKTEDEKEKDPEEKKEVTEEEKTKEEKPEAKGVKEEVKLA

As a reminder, the IC50 is the midpoint of a concentration-inhibition curve. In the case of `Nc1ccccc1NC(=O)CCCCCCC(=O)Nc1cccc(-c2cn(-c3ccccc3)nn2)c1`, the IC50 (in [1]; in [2]; on Histone deacetylase 1 [3]; on Histone deacetylase 2 [4]; at Histone deacetylase 8) was > 30 µM each time.
With `O=C(CCCCCCC(=O)Nc1ccccc1)NO` [VORINOSTAT], the Activity in the series on Mus musculus [5] is 40%; in the series with Mus musculus [6] it was 40%; in the series on Rattus norvegicus [7], 20%.
As usually defined, the logP is the decadic logarithm of the partition coefficient of the neutral form, usually between octanol and water. In turn, `COc1ccc(Cn2ccc3ccc(C(=O)NO)cc32)cc1` displayed a logP in series [8] of 2.61. In series [9], this molecule yielded a Drug uptake of 30%.
For `COc1ccc(/C=C/C(=O)NO)c(-c2ccc(-c3ccccc3)cc2)c1`, the IC50 against Histone deacetylase 3 was 3 µM; at Histone deacetylase 11, > 20 µM; in series [10] it was > 20 µM; on Histone deacetylase 1 [11], 3 µM; in series [12], > 20 µM; at Histone deacetylase 4, > 20 µM. For the same molecule, at Histone deacetylase 2 [13], the IC50 is > 20 µM.
By half-life is commonly meant the time needed for the level to fall by half in the phase considered. As a reminder, the logD is the decadic logarithm of the distribution of all forms, ionised or not, between an organic phase and buffer at a given pH. With `Nc1ccccc1NC(=O)c1ccc(CNC(=O)OCc2cccnc2)cc1` [ENTINOSTAT], the Activity with Rattus norvegicus [14] stood at 75%; in the series with Rattus norvegicus [15], 50%; in the series with Rattus norvegicus [20], 25%. The values for the half-life in [16] and in series [18] were 52 to 150 h and 33.9 h, respectively. Also, the logD in series [17] was 2.5; in series [22], 1.8. For the same molecule, the Drug uptake is < 0.001% with Brain [19] and < 0.1% in the series with Brain [21].
As for `CC(/C=C/C(=O)NO)=C\[C@@H](C)C(=O)c1ccc(N(C)C)cc1` [TRICHOSTATIN], the Activity in the series on Rattus norvegicus [23] was <1 g/kg.
